The text below walks through data of DBAASP.

Some test systems named below: Escherichia coli 078; Escherichia coli UB1005; Escherichia coli K88; Escherichia coli K99.
Common to all, as to assay: ≥ marks a high value that may be exact or a test limit, other limits are often not marked, values filed in µg/mL are converted to µM
The subject of assay [1] is Klebsiella pneumoniae NCTC 5055.
In assay [2] the test system is Salmonella typhimurium DA6192.
Assay [3] has as its system Staphylococcus aureus ATCC 6538.
Assay [4] has as its system Micrococcus luteus ATCC 49732.
Assay [5] has as its system Pseudomonas aeruginosa ATCC 27853.
Assay [6] concerns Bacillus subtilis ATCC 6633.
Assay [7] deals with Escherichia coli ATCC 15597.
The test system of assay [8] is Cryptococcus neoformans ATCC 32045.
For assay [9], the system named is Pseudomonas aeruginosa ATCC 10145.
The test system of assay [10] is Staphylococcus aureus ATCC 33591.
Assay [11] concerns Escherichia coli ATCC 2592.
For assay [12], the system named is Candida albicans ATCC 10231.
For assay [13], the system named is Salmonella enterica subsp. enterica serovar Typhimurium ATCC 14028.
The subject of assay [14] is Staphylococcus epidermidis ATCC 12228.
Assay [15] relates to Staphylococcus aureus ATCC 25923.
Assay [16] concerns Salmonella enterica subsp. enterica serovar Pullorum ATCC 7913.
The subject of assay [17] is Salmonella enterica subsp. enterica serovar Typhimurium C77-31.
In assay [18] the test system is Candida parapsilosis CGMCC 2.3989.
For assay [19], the system named is Staphylococcus aureus ATCC 29213.
Assay [20] has as its system Staphylococcus aureus ATCC 43300.
Assay [21] deals with Candida albicans CGMCC 2.2086.
Assay [22] concerns Candida tropicalis CGMCC 2.1975.
For assay [23], the system named is Staphylococcus epidermidis ATCC 35984.

Converted amounts (≈) assume the structure as drawn. A value given as a limit tells only on which side of the number the result lay.

With `CC[C@H](C)[C@H](N)C(=O)N[C@H](C(=O)N[C@@H](CCCCN)C(=O)N[C@H](C(=O)N[C@H](C(=O)N[C@@H](C)C(=O)N[C@@H](CCCCN)C(=O)N[C@@H](CC(C)C)C(=O)N[C@@H](CC(C)C)C(=O)N[C@@H](CC(N)=O)C(=O)N[C@@H](CCCN=C(N)N)C(=O)N[C@@H](CC(C)C)C(=O)N[C@H](C(=O)N[C@@H](CCCCN)C(=O)N[C@H](C(=O)N[C@@H](CC(C)C)C(=O)N[C@@H](CO)C(=O)N[C@@H](CCCCN)C(=O)O)[C@@H](C)CC)[C@@H](C)O)[C@@H](C)CC)C(C)C)[C@@H](C)O` [ITKVIAKLLNRLTKILSK], the MIC (commonly the lowest concentration that inhibits growth of the organism) turned out to be 12.5 µM (≈ 25.7 µg/mL) in assay [1]; 16.7 µM (≈ 34.3 µg/mL) in assay [2]; 5.2 µM (≈ 10.7 µg/mL) in [3]; 1.05 µM (≈ 2.16 µg/mL) in [4]; 3.1 µM (≈ 6.36 µg/mL) in [5]; 4.7 µM (≈ 9.65 µg/mL) in [6]. In addition, the MIC in [7] turned out to be 3.1 µM (≈ 6.36 µg/mL).
For `C[C@H](NC(=O)[C@H](Cc1ccccc1)NC(=O)[C@H](CCCCN)NC(=O)[C@H](CCCCN)NC(=O)[C@H](C)NC(=O)[C@H](Cc1ccccc1)NC(=O)[C@H](CCCCN)NC(=O)[C@H](CCCCN)NC(=O)[C@H](C)NC(=O)[C@H](Cc1ccccc1)NC(=O)[C@H](CCCCN)NC(=O)[C@H](CCCCN)NC(=O)[C@H](C)NC(=O)[C@H](Cc1ccccc1)NC(=O)[C@@H](N)CCCCN)C(=O)N[C@@H](CCCCN)C(=O)O` [KFAKKFAKKFAKKFAK], the minimal inhibitory concentration (MIC) in assay [8] is 3.62 µM (≈ 6.93 µg/mL); in [9], ≥ 65.2 µM; in assay [10], ≥ 130 µM; in assay [11], ≥ 45.9 µM; in [12], 55.3 µM (≈ 106 µg/mL).
As to `C[C@H](NC(=O)[C@H](Cc1ccccc1)NC(=O)[C@H](CCCCN)NC(=O)[C@H](Cc1ccccc1)NC(=O)[C@H](C)NC(=O)[C@H](Cc1ccccc1)NC(=O)[C@H](CCCCN)NC(=O)[C@H](Cc1ccccc1)NC(=O)[C@H](C)NC(=O)[C@H](Cc1ccccc1)NC(=O)[C@H](CCCCN)NC(=O)[C@H](Cc1ccccc1)NC(=O)[C@H](C)NC(=O)[C@H](Cc1ccccc1)NC(=O)[C@H](CCCCN)NC(=O)[C@H](Cc1ccccc1)NC(=O)[C@H](C)NC(=O)[C@H](Cc1ccccc1)NC(=O)[C@H](CCCCN)NC(=O)[C@H](Cc1ccccc1)NC(=O)[C@H](C)NC(=O)[C@H](Cc1ccccc1)NC(=O)[C@H](CCCCN)NC(=O)[C@H](Cc1ccccc1)NC(=O)[C@H](C)NC(=O)[C@H](Cc1ccccc1)NC(=O)[C@@H](N)CCCCN)C(=O)N[C@@H](Cc1ccccc1)C(=O)O` [KFAFKFAFKFAFKFAFKFAFKFAFKFAF], the MIC in assay [8] was ≥ 50.9 µM; in assay [9], ≥ 72 µM; in [10], ≥ 144 µM; in assay [11] it was ≥ 288 µM; in [12] it was > 144 µM.
`CC[C@H](C)[C@H](N)C(=O)N[C@H](C(=O)N[C@@H](CCCCN)C(=O)N[C@H](C(=O)N[C@H](C(=O)N[C@H](C(=O)N[C@@H](CCCCN)C(=O)N[C@@H](CC(C)C)C(=O)N[C@@H](CC(C)C)C(=O)N[C@@H](CC(N)=O)C(=O)N[C@@H](CCCN=C(N)N)C(=O)N[C@@H](CC(C)C)C(=O)N[C@@H](CO)C(=O)N[C@@H](CCCCN)C(=O)N[C@H](C(=O)N[C@@H](CC(C)C)C(=O)N[C@@H](CO)C(=O)N[C@@H](CCCCN)C(=O)O)[C@@H](C)CC)[C@@H](C)O)[C@@H](C)CC)C(C)C)[C@@H](C)O` [ITKVITKLLNRLSKILSK]: the minimum inhibitory concentration (MIC) is 25 µM (≈ 51.7 µg/mL) in [1]; 16.7 µM (≈ 34.5 µg/mL) in assay [2]; > 50 µM in assay [3]; 1.05 µM (≈ 2.17 µg/mL) in assay [4]; 2.08 µM (≈ 4.3 µg/mL) in assay [5]; 4.2 µM (≈ 8.69 µg/mL) in assay [6]. The MIC in assay [7] came to 2.8 µM (≈ 5.79 µg/mL).
As for `CC(C)C[C@H](NC(=O)[C@H](CCCCN)NC(=O)[C@H](CC(C)C)NC(=O)[C@H](CCCCN)NC(=O)[C@H](CC(C)C)NC(=O)[C@H](CCCCN)NC(=O)[C@H](CC(C)C)NC(=O)[C@H](CCCCN)NC(=O)[C@H](CC(C)C)NC(=O)[C@H](CCCCN)NC(=O)[C@H](CC(C)C)NC(=O)[C@H](CCCCN)NC(=O)[C@H](CC(C)C)NC(=O)[C@H](CCCCN)NC(=O)[C@H](CC(C)C)NC(=O)[C@H](CCCCN)NC(=O)[C@H](CC(C)C)NC(=O)[C@H](CCCCN)NC(=O)[C@H](CC(C)C)NC(=O)[C@H](CCCCN)NC(=O)[C@H](CC(C)C)NC(=O)[C@H](CCCCN)NC(=O)[C@@H](N)CC(C)C)C(=O)N[C@@H](CCCCN)C(=O)O` [LKLKLKLKLKLKLKLKLKLKLKLK], the MIC was 15.3 µM (≈ 44.5 µg/mL) in assay [8]; 15.4 µM (≈ 45 µg/mL) in assay [9]; ≥ 85.8 µM in assay [10]; 30.2 µM (≈ 88 µg/mL) in assay [11]; 121 µM (≈ 354 µg/mL) in assay [12].
Turning to `CC[C@H](C)[C@H](NC(=O)[C@H](CCCCN)NC(=O)[C@H](C)NC(=O)[C@H](C)N)C(=O)N[C@H](C(=O)N[C@@H](CC(C)C)C(=O)N[C@@H](CC(N)=O)C(=O)N1CCC[C@H]1C(=O)N[C@@H](CCCCN)C(=O)N[C@@H](Cc1ccccc1)C(=O)N[C@@H](CCCN=C(N)N)C(=O)N[C@H]1CSSC[C@@H](C(N)=O)NC(=O)[C@H](Cc2ccccc2)NC(=O)[C@H](C)NC(=O)[C@H](C)NC(=O)[C@H](CCCCN)NC1=O)[C@@H](C)CC` [AAKIILNPKFRCKAAFC], the MIC with Escherichia coli 078 is ≥ 128 µM; in assay [13], 64 µM (≈ 121 µg/mL); in the assay with Escherichia coli UB1005, ≥ 64 µM; in assay [14] it was > 128 µM; in assay [15] it was 64 µM (≈ 121 µg/mL); against Escherichia coli K88, ≥ 32 µM. In addition, the minimum inhibitory concentration (MIC) is ≥ 64 µM in assay [16]; ≥ 128 µM in assay [17]; > 128 µM in [5]; ≥ 128 µM in assay [18]; > 128 µM in assay [19]; ≥ 32 µM against Escherichia coli K99. The MIC in assay [20] was > 128 µM; in [21], ≥ 128 µM; in assay [22], ≥ 128 µM.
As for `CC[C@H](C)[C@H](NC(=O)[C@H](CCCN=C(N)N)NC(=O)[C@H](C)NC(=O)[C@H](C)N)C(=O)N[C@H](C(=O)N[C@@H](CC(C)C)C(=O)N[C@@H](CCCN=C(N)N)C(=O)N1CCC[C@H]1C(=O)N[C@@H](CCCN=C(N)N)C(=O)N[C@@H](Cc1ccccc1)C(=O)N[C@@H](CCCN=C(N)N)C(N)=O)[C@@H](C)CC` [AARIILRPRFR], the minimum inhibitory concentration (MIC) is 8 µM (≈ 10.9 µg/mL) in the assay on Escherichia coli 078; 16 µM (≈ 21.9 µg/mL) in assay [13]; 8 µM (≈ 10.9 µg/mL) in the assay on Escherichia coli UB1005; > 128 µM in [14]; > 128 µM in assay [15]; 16 µM (≈ 21.9 µg/mL) against Escherichia coli K88. Further, the MIC was 16 µM (≈ 21.9 µg/mL) in assay [16]; 16 µM (≈ 21.9 µg/mL) in assay [17]; > 128 µM in assay [5]; ≥ 128 µM in [18]; > 128 µM in assay [19]; 16 µM (≈ 21.9 µg/mL) against Escherichia coli K99. Further, the figures for the MIC in [20], in assay [21] and in [22] were > 128 µM, ≥ 128 µM and ≥ 128 µM, respectively.
For `CC[C@H](C)[C@H](N)C(=O)NCC(=O)N[C@@H](CCCCN)C(=O)N[C@@H](Cc1ccccc1)C(=O)N[C@@H](CC(C)C)C(=O)N[C@@H](CCCCN)C(=O)N[C@@H](CCCCN)C(=O)N[C@@H](C)C(=O)N[C@@H](CCCCN)C(=O)N[C@@H](CCCCN)C(=O)N[C@@H](Cc1ccccc1)C(=O)NCC(=O)N[C@@H](CCCCN)C(=O)N[C@@H](C)C(=O)N[C@@H](Cc1ccccc1)C(=O)N[C@H](C(=O)N[C@@H](CCCCN)C(N)=O)C(C)C` [IGKFLKKAKKFGKAFVK], the minimum inhibitory concentration (MIC) in assay [15] is > 264 µM; in assay [23], 11.7 µM (≈ 22.6 µg/mL); in assay [5], 2.92 µM (≈ 5.65 µg/mL); in assay [10] it was ≥ 264 µM.
